Results: ChEMBL document CHEMBL5500393, “Discovery and Optimization of Novel SaFabI Inhibitors as Specific Therapeutic Agents for MRSA Infection” (J Med Chem, 2024)

How the values were obtained:
Enterococcus faecalis = assay: Antimicrobial activity against Enterococcus faecalis ATCC29212 measured after 24 hrs by CLSI protocol based microdilution method; assay type: functional
Escherichia coli = assay: Antimicrobial activity against Escherichia coli ATCC25922 measured after 24 hrs by CLSI protocol based microdilution method; assay type: functional
[1] = biological target: T1, Enoyl-[acyl-carrier-protein] reductase [NADPH] FabI (Staphylococcus aureus) (UniProt Q6GI75); assay: Inhibition of N-terminal his 6 tagged Staphylococcus aureus Fabi (1 to […] residues) expressed in Escherichia coli BL21 at 1 uM incubated for 30 mins in presence of NADPH by fluorescence based microplate reader analysis relative to control
T1 sequence (whole entry): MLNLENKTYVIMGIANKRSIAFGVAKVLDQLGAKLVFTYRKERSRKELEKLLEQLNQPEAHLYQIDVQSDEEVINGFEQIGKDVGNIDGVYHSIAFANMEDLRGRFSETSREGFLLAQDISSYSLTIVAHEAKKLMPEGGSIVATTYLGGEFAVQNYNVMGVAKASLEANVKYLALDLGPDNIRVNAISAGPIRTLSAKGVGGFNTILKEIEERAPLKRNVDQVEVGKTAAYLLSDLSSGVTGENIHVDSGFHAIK

Pseudomonas aeruginosa = assay: Antimicrobial activity against Pseudomonas aeruginosa PAO1 measured after 24 hrs by CLSI protocol based microdilution method; assay type: functional
Staphylococcus aureus [2] = assay: Antimicrobial activity against […] Staphylococcus aureus ATCC43300 measured after 24 hrs by CLSI protocol based microdilution method; assay type: functional
Staphylococcus aureus [3] = assay: Antimicrobial activity against methicillin-susceptible Staphylococcus aureus ATCC25923 measured after 24 hrs by CLSI protocol based microdilution method; assay type: functional
Candida albicans = assay: Antimicrobial activity against Candida albicans SC5314 measured after 48 hrs by CLSI protocol based microdilution method; assay type: functional
Staphylococcus aureus [4] = assay: Antimicrobial activity against […] Staphylococcus aureus ATCC33591 measured after 24 hrs by CLSI protocol based microdilution method; assay type: functional
[5] = biological target: T1, Enoyl-[acyl-carrier-protein] reductase [NADPH] FabI (Staphylococcus aureus); assay: Inhibition of N-terminal his 6 tagged Staphylococcus aureus Fabi (1 to […] residues) expressed in Escherichia coli BL21 at 10 uM incubated for 30 mins in presence of NADPH by fluorescence based microplate reader analysis relative to control
Staphylococcus aureus [6] = assay: Antimicrobial activity against […] Staphylococcus aureus NRS271 measured after 24 hrs by CLSI protocol based microdilution method; assay type: functional
Staphylococcus aureus [7] = assay: Antimicrobial activity against […] Staphylococcus aureus USA300 measured after 24 hrs by CLSI protocol based microdilution method; assay type: functional
Enterococcus faecium = assay: Antimicrobial activity against Enterococcus faecium ATCC19434 measured after 24 hrs by CLSI protocol based microdilution method; assay type: functional
Acinetobacter baumannii = assay: Antimicrobial activity against Acinetobacter baumannii ATCC19606 measured after 24 hrs by CLSI protocol based microdilution method; assay type: functional
Staphylococcus aureus [8] = assay: Antimicrobial activity against methicillin-susceptible Staphylococcus aureus ATCC29213 measured after 24 hrs by CLSI protocol based microdilution method; assay type: functional

SMILES | MIC (Enterococcus faecalis) [µg/mL] | MIC (Escherichia coli) [µg/mL] | inhibition [1] [%] | MIC (Pseudomonas aeruginosa) [µg/mL] | MIC (Staphylococcus aureus [2]) [µg/mL] | MIC (Staphylococcus aureus [3]) [µg/mL] | MIC (Candida albicans) [µg/mL] | MIC (Staphylococcus aureus [4]) [µg/mL] | inhibition [5] [%] | MIC (Staphylococcus aureus [6]) [µg/mL] | MIC (Staphylococcus aureus [7]) [µg/mL] | MIC (Enterococcus faecium) [µg/mL] | MIC (Acinetobacter baumannii) [µg/mL] | MIC (Staphylococcus aureus [8]) [µg/mL]
COc1ccc(N2CC(c3nc4ccccc4n3C)CC2=O)cc1OC (configuration not stated) | > 32 | > 32 | 1.6 | > 32 | > 32 | > 32 | > 32 | > 32 | 22.5 | > 32 | > 32 | > 32 | > 32 | > 32
Cc1c(Br)cccc1N1CC(c2nc3ccccc3[nH]2)CC1=O (configuration not stated) | > 32 | > 32 | 11.6 | > 32 | > 32 | > 32 | > 32 | > 32 | 36.6 | > 32 | > 32 | > 32 | > 32 | > 32
Cn1c(C2CC(=O)N(CCc3ccccc3)C2)nc2ccccc21 (configuration not stated) | > 32 | > 32 | 5.8 | > 32 | > 32 | > 32 | > 32 | > 32 | 3.9 | > 32 | > 32 | > 32 | > 32 | > 32
Cc1cccc(C(=O)NCCNC(=O)c2nc3ccccc3n2C)c1C | > 32 | > 32 | 1.7 | > 32 | > 32 | > 32 | > 32 | > 32 | 3.7 | > 32 | > 32 | > 32 | > 32 | > 32
Cn1c(CCC(=O)NCCNC(=O)Cc2ccccc2)nc2ccccc21 | > 32 | > 32 | 3.6 | > 32 | > 32 | > 32 | > 32 | > 32 | 21.4 | > 32 | > 32 | > 32 | > 32 | > 32
Cn1c(C(=O)NCCC(=O)NCc2ccccc2)nc2ccccc21 | > 32 | > 32 | 5.7 | > 32 | > 32 | > 32 | > 32 | > 32 | 8.6 | > 32 | > 32 | > 32 | > 32 | > 32
Cn1ccc(N2CC(c3nc4ccccc4n3C)CC2=O)n1 (configuration not stated) | > 32 | > 32 | 5.1 | > 32 | > 32 | > 32 | > 32 | > 32 | 4.3 | > 32 | > 32 | > 32 | > 32 | > 32
Cn1c(C2CC(=O)N(c3ccc(F)c(F)c3)C2)nc2ccccc21 (configuration not stated) | > 32 | > 32 | 2.7 | > 32 | > 32 | > 32 | > 32 | > 32 | 40.1 | > 32 | > 32 | > 32 | > 32 | > 32
O=C1CC(c2nc3ccccc3[nH]2)CN1c1cccc2ccccc12 (configuration not stated) | > 32 | > 32 | 3.2 | > 32 | > 32 | > 32 | > 32 | > 32 | 15.4 | > 32 | > 32 | > 32 | > 32 | > 32
Cc1cccc(NC(=O)CCc2nc3ccccc3n2C)c1C | > 32 | > 32 | 4.5 | > 32 | > 32 | > 32 | > 32 | > 32 | 10 | > 32 | > 32 | > 32 | > 32 | > 32
Cn1c(C2CC(=O)N(c3ccc(N4CCOCC4)cc3)C2)nc2ccccc21 (configuration not stated) | > 32 | > 32 | 8.2 | > 32 | > 32 | > 32 | > 32 | > 32 | 7.7 | > 32 | > 32 | > 32 | > 32 | > 32
Cn1c(C2CC(=O)N(c3ccc(Br)c(Br)c3)C2)nc2ccccc21 (configuration not stated) | > 32 | > 32 | 4.8 | > 32 | > 32 | > 32 | > 32 | > 32 | 45.4 | > 32 | > 32 | > 32 | > 32 | > 32
CC(=O)c1ccc(N2CC(c3nc4ccccc4n3C)CC2=O)cc1Cl (configuration not stated) | > 32 | > 32 | 5.5 | > 32 | > 32 | > 32 | > 32 | > 32 | 3.8 | > 32 | > 32 | > 32 | > 32 | > 32
Cn1c(C2CC(=O)N(Cc3ccccc3)C2)nc2ccccc21 (configuration not stated) | > 32 | > 32 | 4.6 | > 32 | > 32 | > 32 | > 32 | > 32 | 27.9 | > 32 | > 32 | > 32 | > 32 | > 32
Cc1cccc(C(=O)NCCNC(=O)CCc2nc3ccccc3n2C)c1C | > 32 | > 32 | 5.2 | > 32 | > 32 | > 32 | > 32 | > 32 | 25.6 | > 32 | > 32 | > 32 | > 32 | > 32
Cc1cccc(NC(=O)CCNC(=O)c2nc3ccccc3n2C)c1C | > 32 | > 32 | 4.8 | > 32 | > 32 | > 32 | > 32 | > 32 | 6.6 | > 32 | > 32 | > 32 | > 32 | > 32
Cn1c(C2CC(=O)N(c3ccc(Cl)cc3)C2)nc2ccccc21 (configuration not stated) | > 32 | > 32 | 2.2 | > 32 | > 32 | > 32 | > 32 | > 32 | 35.7 | > 32 | > 32 | > 32 | > 32 | > 32
COc1cccc(N2CC(c3nc4ccccc4n3C)CC2=O)c1OC (configuration not stated) | > 32 | > 32 | 3.8 | > 32 | > 32 | > 32 | > 32 | > 32 | 45.2 | > 32 | > 32 | > 32 | > 32 | > 32
